Key:
[1] = Bioavailability test in vivo in cynomolgus monkey (pharmacokinetics, IV and PO); conditions: cynomolgus monkeys
Experimental: Twelve male Non-Naïve cynomolgus monkeys were purchased from GuangxiGuidong Primate Development Experiment Co. LTD.
(§1) 54.31 mg of I-8-1 was accurately weighed, and 1.08 mL of DMSO was added, then the mixture was vortexed for 1 min, sonicated for 15 min, and then diluted to 36 mL according to the ratio of 10% HP-β-cyclodextrin (prepared by normal saline): PEG=8:2, vortexed for 1 min. A colorless clarified administration solution (the pH value was about 7) at a concentration of 1.5 mg/mL was prepared for intravenous administration to Group 1.
300.9 mg of I-8-1 was accurately weighed, and 75 mL of 0.5% CMC-Na was added, the mixture was fully ground and stirred for 5 min. A white suspension (the pH value was about 7) at a concentration of 4 mg/mL was prepared for oral administration to Group 2.
as §1, with “54.05 mg” for “54.31 mg”, “of AZD1775” for “of I-8-1”, “then he” for “then the”, “of 10%-D-cyclodextrin” for “of 10% HP-β-cyclodextrin”, “A yellow” for “A colorless”, “Group 3.” for “Group 1.”
300.7 mg of AZD1775 was accurately weighed, and 75 mL of 0.5% CMC-Na was added, the mixture was fully ground and stirred for 5 min. A yellow suspension (the pH value was about 7) at a concentration of 4 mg/mL was prepared for oral administration to Group 4.
Before administration, all animals were fasted overnight (approximately 12 hours) and fed as required and administered according to the table below.
Intravenous group: before administration (0 h), 0.033 h, 0.083 h, 0.25 h, 0.5 h, 1 h, 1.5 h, 2 h, 4 h, 6 h, 8 h, 12 h, 24 h after administration.
Oral group: before administration (0 h), 0.083 h, 0.25 h, 0.5 h, […], 2 h, 4 h, 6 h, 8 h, 12 h, 24 h after administration.
Blood samples were collected by puncture through lower limb vein or other suitable blood vessels at 1 mL/time point (3 mL of blood samples were collected from each animal before administration), anticoagulated with heparin sodium, and placed on ice after collection. Plasma was separated at 2200 g/min, 10 min, 2-8° C., plasma samples were stored in a −80° C. refrigerator before being transferred to the client. Plasma samples are stored in dry ice and transferred to the client. The final treatment of the sample will be recorded in the experimental record.
300 μL of acetonitrile was added to 50 μL of plasma samples containing internal standard (Propranolol, 25 ng/mL) to precipitate protein, vortexed for 10 min, centrifuged at 6000 g for 10 min, after I-8-1&AZD1775 intravenous injection group was diluted 10 times with internal standard acetonitrile (Propranolol, 25 ng/mL) at the time point before 1 hour, the remaining supernatant was not diluted, centrifuged again at 6000 g at 4° C. for 10 min, and the supernatant was taken and injected into a 96 well plate.
(§2) Dose; peak concentration: Cmax; peak time: Tmax; area under the drug-time curve from AUClast 0 to time t; half-life: T1/2; mean retention time: MRT; clearance: Cl; apparent distribution volume: Vz; steady-state distributed volume: Vss; absolute bioavailability: F.
The pharmacokinetic parameters of the compound in cynomolgus monkeys after intravenous injection or intragastric administration were shown in Table 6 below.

[2] = Bioavailability test in vivo in mice (pharmacokinetics, iv and intragastric); design: species or system ICR mice
Experimental: 404.6 μL of DMSO was added to the compound powder of the present disclosure until the compound was completely dissolved, and 50 mg/mL mother liquor was prepared in a clarified state.
The compound of the present disclosure: 24 μL of mother liquor was accurately measured, diluted to 4 mL according to the ratio of 0.9% normal saline:PEG400=8:2, the preparation concentration was 0.3 mg/mL, the solution was in a clarified state, and it was used as intravenous administration solution. In addition, 80 μL mother liquor was accurately measured, and 0.5% CMC-Na was added to 8 mL to grind it into a uniform suspension with a concentration of 0.5 mg/mL, which was used as intragastric administration solution.
(§3) Intravenous group: 24 ICR mice, 20±2 g, were given the intravenous administration solution of the compound of the present disclosure by intravenous injection, with the volume of 10 mL/kg, with the dose of 3 mg/kg, the blood was taken from the fundus venous plexus of mice, 2, 5, 15, 30, 60, 90, 120, 240, 360, 480, 600 and 1440 minutes before and after administration.
as §3, with “Intragastric group:” for “Intravenous group:”, “the intragastric” for “the intravenous”, “by intragastric” for “by intravenous”, “of 20” for “of 10”, “of 10” for “of 3”, “mice,” for “mice, 2,”
Blood sample was centrifuged at 8000 rpm for 5 min, and the plasma was stored in a centrifuge tube at −20° C. for later use.
300 μL of acetonitrile containing internal standard (Propranolol, 25 ng/mL) was added to 50 μL of plasma samples to precipitate protein, vortexed for 10 min, 6000 g, 4° C., centrifuged for 10 min; the supernatant before intravenous injection for 1 hour was taken, diluted 10 times with acetonitrile containing internal standard, the rest supernatant was kept undiluted, centrifuged for 10 min again at 6000 g, 4° C., and the supernatant was taken and then injected into a 96-well plate.
as §2
The pharmacokinetic parameters of the compound in mice after intravenous injection or intragastric administration were shown in Table 4 and Table 5 below.

[3] = male, cynomolgus monkey, plasma, iv, 3 mg/kg
[4] = male, cynomolgus monkey, plasma, po, 20 mg/kg, fasted
[5] = ICR, mouse, plasma, iv, 3 mg/kg
[6] = ICR, mouse, plasma, po (intragastric), 10 mg/kg

- AUCextra ([1]; iv, 3 mg/kg): 16.11 ± 9.34 (h)*(ng/mL)
- AUClast ([1]; iv, 3 mg/kg): 957.6 ± 126.3 (h)*(ng/mL)
- AUCtot ([1]; iv, 3 mg/kg): 973.8 ± 131.4 (h)*(ng/mL)
- thalf ([1]; iv, 3 mg/kg): 2.05 ± 1.24 h
- AUCextra ([1]; po, 20 mg/kg, fasted): 187.03 ± 166.00 (h)*(ng/mL)
- AUClast ([1]; po, 20 mg/kg, fasted): 6548 ± 3043 (h)*(ng/mL)
- AUCtot ([1]; po, 20 mg/kg, fasted): 6735 ± 3201 (h)*(ng/mL)
- thalf ([1]; po, 20 mg/kg, fasted): 3.71 ± 0.72 h
- Vd ([1]; male, cynomolgus monkey, plasma, iv, 3 mg/kg, iv, 3 mg/kg, read-out: Vss): 9.67 ± 1.32 L/kg
- Vd ([1]; male, cynomolgus monkey, plasma, iv, 3 mg/kg, iv, 3 mg/kg, read-out: Vz): 8.78 ± 4.22 L/kg
- Cmax [1, 3]: 838 ± 190 ng/mL
- MRT [1, 3]: 3.17 ± 0.82 h
- Tmax [1, 3]: 0.03 h
- clearance [1, 3]: 52 mL/min/kg
- bioavailability ([1]; male, cynomolgus monkey, plasma, po 20 mg/kg vs iv 3 mg/kg, read-out: BA (absolute bioavailability)): 103%
- Cmax [1, 4]: 721 ± 260 ng/mL
- MRT [1, 4]: 7.91 ± 2 h
- Tmax [1, 4]: 4.5 ± 2.6 h
- Cmax [2, 5]: 644 ± 132 ng/mL
- MRT [2, 5]: 1.11 ± 0.08 h
- Tmax [2, 5]: 0.03 h
- clearance [2, 5]: 155 mL/min/kg
- half-life [2, 5]: 1.22 ± 0.1 h
- Vd ([2]; ICR, mouse, plasma, iv, 3 mg/kg, iv, 3 mg/kg, read-out: Vss): 10.3 ± 0.86 L/kg
- Vd ([2]; ICR, mouse, plasma, iv, 3 mg/kg, iv, 3 mg/kg, read-out: Vz): 16.3 ± 2.48 L/kg
- bioavailability ([2]; ICR, mouse, plasma, po 10 mg/kg vs iv 3 mg/kg, read-out: F (absolute bioavailability)): 60.3%
- Cmax [2, 6]: 58.1 ± 7.09 ng/mL
- MRT [2, 6]: 3.47 ± 1.22 h
- Tmax [2, 6]: 1.67 ± 0.29 h
- half-life [2, 6]: 1.57 ± 0.39 h
- AUClast ([2]; iv, 3 mg/kg): 317.5 ± 34.41 (h) (ng/mL)
- AUClast ([2]; po (intragastric), 10 mg/kg): 637.9 ± 302.3 (h) (ng/mL)
Compound: C=CCn1c(=O)c2cnc(Nc3ccc(C4CCC(N5CCC5)CC4)cc3)nc2n1-c1cccc(C(C)(C)O)n1 (single isomer, unassigned) [Compound I-8-1]

From patent publication US12612408B2, “Pyrazolone-fused pyrimidine compound, preparation method for same and applications thereof” (SHANGHAI PHARMACEUTICALS HOLDING CO., LTD., priority 2019, dated 2026)
